Data from US12729221B2, “Anti-inflammatory peptide and use thereof” (MITO QUEST CO., LTD., priority 2020, dated 2026).
Where no end group is shown, it is not given here.

Legend:
interleukin-6 (IL-6) = assay: LPS-induced IL-6 expression in IC21, ELISA; type: cell-based, mouse; settings: 0.1 mg/ml LPS, 6 hours, FIG. 12A-A
Description: Specifically, LPS was used to induce an inflammatory response caused by bacterial infection. First, MQP-15, MQP-23, MQP-31, MQP-37 or MQP-Y9 was added to a serum-free cell culture medium containing 0.1 mg/ml LPS, followed by treatment with 1×10^5 cells of IC21 for 6 hours. Then, the supernatant was obtained and the expression levels of interleukin-6 (IL-6) and a tumor necrosis factor-alpha (TNF-a) were checked by ELISA.

NF-κB = assay: LPS-induced phosphorylation of NF-kB in IC21, Western blot; type: cell-based, mouse; settings: LPS, Western blot, FIGS. 12B-D to 12B-F
Description: Specifically, LPS was used to induce an immune activation response caused by bacterial infection, and the phosphorylation of nuclear factor kappa-light-chain-enhancer of activated B cells (NF-kB) was checked to identify the mechanism of the immune activation response. […] Thereafter, the cells were washed with a PBS solution and then lysed with a RIPA buffer, and the supernatant was separated. In order to measure the change in the phosphorylation amount of NF-κB protein with the separated supernatant, the Western blot was performed as in Example 2.

IL-1b = assay: LPS/ATP-induced IL-1b expression (inflammasome response) in IC21, ELISA; type: cell-based, mouse; settings: 1 mg/ml LPS, 5 mM ATP 30 minutes
Description: (§1) Specifically, LPS and ATP were used to induce an inflammasome response caused by bacterial infection, and polyIC was used to induce an inflammatory response caused by viral infection. First, 1 mg/ml LPS and 5 mM or 1 mM novel alanine-substituted peptide were mixed in a serum-free cell culture medium, followed by treatment with 1×10^5 cells of IC21. Thereafter, 5 mM ATP and 5 mM or 1 mM novel alanine-substituted peptide were mixed in a serum-free cell culture medium and treated for 30 minutes. Then, the supernatant was obtained and the expression level of IL-1b was checked by ELISA. Also, 5 mg/ml polyIC and 25 mM or 2 mM novel alanine-substituted peptide were mixed in a serum-free cell culture medium, followed by treatment with 1×10^5 cells of MLE-12 for 16 hours. Thereafter, the supernatant was obtained and the expression level of IFN-b was checked by ELISA.
as §1, with “2” for “5 mM or 1”, “amino acid-substituted” for “alanine-substituted”, “and” for “and 25 mM or”
Specifically, LPS was used to induce an inflammatory response caused by bacterial infection. First, MQP-37 or MQP-37A6 was added to a serum-free cell culture medium containing 0.1 mg/ml LPS, followed by treatment with 1×10^5 cells of IC21 for 6 hours. Then, the supernatant was obtained and the expression level of IL-6 was checked by ELISA. Also, the Western blot was performed and the phosphorylation of NF-κB was checked to identify the mechanism of immune activation response. Thereafter, LPS and ATP were used to induce an inflammasome response caused by bacterial infection, LPS and ATP were used. First, 1 mg/ml LPS and L- or D-MQP-37 and MQP-37A6 were mixed in a serum-free cell culture medium and treated with 1×10^5 cells of IC21. Then, 5 mM ATP and MQP-37 or MQP-37A6 were mixed in a serum-free cell culture medium and treated for 30 minutes. Thereafter, the supernatant was obtained and the expression level of IL-1b was checked by ELISA.

recombinant MAVS protein = recombinant MAVS protein (Homo sapiens, UniProt Q7Z434); assay: Binding of fluorescence-labeled peptides to plate-coated recombinant MAVS protein
recombinant MAVS protein, sequence (Q7Z434 whole entry, species assumed): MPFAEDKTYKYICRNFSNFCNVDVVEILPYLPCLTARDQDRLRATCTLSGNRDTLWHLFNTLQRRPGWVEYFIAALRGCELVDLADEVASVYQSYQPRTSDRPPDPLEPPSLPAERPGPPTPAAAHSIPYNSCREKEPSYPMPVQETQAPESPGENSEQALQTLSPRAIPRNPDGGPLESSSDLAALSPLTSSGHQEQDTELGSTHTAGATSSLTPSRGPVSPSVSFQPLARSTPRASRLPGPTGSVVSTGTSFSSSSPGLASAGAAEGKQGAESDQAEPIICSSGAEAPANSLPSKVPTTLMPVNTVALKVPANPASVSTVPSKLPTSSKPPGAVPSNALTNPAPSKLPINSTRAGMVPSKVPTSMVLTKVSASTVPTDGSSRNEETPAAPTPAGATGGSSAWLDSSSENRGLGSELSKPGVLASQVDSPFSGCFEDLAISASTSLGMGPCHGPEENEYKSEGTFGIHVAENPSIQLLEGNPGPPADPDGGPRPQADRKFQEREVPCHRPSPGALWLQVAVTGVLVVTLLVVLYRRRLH
Description: Specifically, recombinant MAVS protein and fluorescence-labeled peptides MQP-37 and MQP-37A6 were used to check the binding affinity to the MAVS protein. First, 250 ng of recombinant MAVS protein was coated on a 96-well plate for ELISA, followed by blocking with 1% BSA/PBS solution. Thereafter, fluorescence-labeled peptides of various concentrations were added thereto and reacted for 2 hours, and the amount of peptide bound to the MAVS protein was checked by fluorescence measurement.

[1] = tested on: mouse sepsis models induced by LPS; assay: Mouse sepsis model induced by LPS, survival; type: in vivo, C57BL/6 wild-type mice
Description: Specifically, 2 mg/kg and 5 mg/kg LPS were administered into the abdominal cavity of 7-week-old C57BL/6 wild-type mice every 6 hours, and 1 hour later, 0.4 mg/kg, 2 mg/kg and 10 mg/kg novel peptides were additionally administered into the abdominal cavity of the mice. Then, the survival of the mice was checked for 4 days.

interferon-beta (IFN-b) = assay: polyIC-induced IFN-b expression in MLE-12 cells, ELISA; type: cell-based, mouse; settings: 5 mg/ml polyIC, 16 hours, 25 mM or 2 mM peptide, FIG. 9A
Description: Specifically, polyinosinic:polycytidylic acid (polyIC), which is a synthetic ribonucleic acid known to be associated with viral infection among the PAMPs and promotes the production of interferon and is analogous to an RNA virus gene, was used to induce a viral infection response. First, a serum-free cell culture medium containing 5 mg/ml polyIC and MQP-15, MQP-23, MQP-31, MQP-37, MQP-Y9 or MQP-T234 was treated with 1×10^5 cells of a mouse lung epithelial cell line (MLE-12) for 16 hours. Then, the supernatant was obtained and the expression level of interferon-beta (IFN-b) was checked by enzyme-linked immunosorbent assay (ELISA).
as §1
as §1, with “2” for “5 mM or 1”, “amino acid-substituted” for “alanine-substituted”, “and” for “and 25 mM or”
Specifically, polyIC was used to induce a viral infection response. First, a serum-free cell culture medium containing 5 mg/ml polyIC and MQP-37, MQP-37A6, MQP-37D6W, MQP-37D6Y, MQP-37D6H, MQP-37D6K, MQP-37D6R or MQP-37D6V was treated with 1×10^5 cells of MLE-12 for 16 hours. Then, the supernatant was obtained and the expression level of IFN-b was checked by ELISA.

SLVLAAARW [MQP-37A6]
inflammatory response caused by bacterial infection (IL-6), compared with MQP-37 (interleukin-6 (IL-6)): more than the original peptide MQP-37 | immune activation response (NF-κB phosphorylation), compared with MQP-37 (NF-κB): more than the original peptide MQP-37 | inflammasome response caused by bacterial infection (IL-1b), sixth amino acid of MQP-37 substituted (IL-1b; 2 mM peptide, FIG. 10A-B): most effectively | inflammasome response caused by bacterial infection (IL-1b), compared to original MQP-37 (IL-1b; 5 mM or 1 mM peptide, FIG. 9A): significantly improved | inflammasome response caused by bacterial infection (IL-1b), compared with MQP-37 (IL-1b; FIGS. 12A-B and 12A-C): more than the original peptide MQP-37 | Kd (recombinant MAVS protein): ~750 µM | treating sepsis [1]: effective | inflammatory response caused by viral infection (IFN-b), compared to original MQP-37 (interferon-beta (IFN-b)): significantly improved
